Results as given in US7629468B2 (Janssen Pharmaceutica NV, priority 2003, dated 2009).
pIC50: −log10 of the molar value.

What was measured:
[1] = tested on: rats with a Bennett ligation; test: Cold allodynia test in rats with a Bennett ligation (cold plate testing); type: in vivo, rat; conditions: male SD rats, IP, dose of 2.5 mg/kg bodyweight, retested after 60 minutes, cold plate 0.0 °C
Method: Cold Allodynia Test in Rats with a Bennett Ligation
Male SD rats, weighing 240-280 g at the time of surgery were used.
For surgery, the animals were anaesthetised with Thalamonal (1 ml; subcutane) and sodium pentobarbital (40 mg/kg; intraperitoneal (IP)). The common sciatic nerve of the left hindpaw was exposed at the level of the middle of the thigh by blunt dissection through the biceps femoris. Proximal to the sciatic's trifurcation, about 7 mm of nerve was freed and four loose ligatures with 4.0 chromic gut were placed around the sciatic nerve. Great care was taken to tie the ligatures such that the diameter of the nerve was barely constricted. After surgery, the animals received 1.25 mg/kg naloxone IP.
Cold plate testing was performed on a metal plate of 30×30 cm with transparent acrylic walls around it. The cold plate was cooled to 0.0 (±0.5)° C. using a Julabo F25 cooler. For testing, the animal was placed on the cold plate and the duration of lifting of both the left and the right hindpaw was measured during 5 minutes. The difference in lifting time between the ligated and non-ligated paw was calculated.
At least one week after the operation, animals were placed on the cold plate test and a pre-drug measurement was taken. […] The results obtained during the post drug test were expressed as a percentage of those of the predrug test. […]

[2] = biological target: T1, cloned rat mGluR1 receptor (Rattus norvegicus, UniProt P23385); test: Signal transduction at the cloned rat mGluR1 receptor in CHO cells (glutamate-induced intracellular Ca2+ rise, FLIPR); type: cell-based
T1 construct: expressed in transfected cells; host or cells: CHO cells
T1 sequence (P23385 19-1199): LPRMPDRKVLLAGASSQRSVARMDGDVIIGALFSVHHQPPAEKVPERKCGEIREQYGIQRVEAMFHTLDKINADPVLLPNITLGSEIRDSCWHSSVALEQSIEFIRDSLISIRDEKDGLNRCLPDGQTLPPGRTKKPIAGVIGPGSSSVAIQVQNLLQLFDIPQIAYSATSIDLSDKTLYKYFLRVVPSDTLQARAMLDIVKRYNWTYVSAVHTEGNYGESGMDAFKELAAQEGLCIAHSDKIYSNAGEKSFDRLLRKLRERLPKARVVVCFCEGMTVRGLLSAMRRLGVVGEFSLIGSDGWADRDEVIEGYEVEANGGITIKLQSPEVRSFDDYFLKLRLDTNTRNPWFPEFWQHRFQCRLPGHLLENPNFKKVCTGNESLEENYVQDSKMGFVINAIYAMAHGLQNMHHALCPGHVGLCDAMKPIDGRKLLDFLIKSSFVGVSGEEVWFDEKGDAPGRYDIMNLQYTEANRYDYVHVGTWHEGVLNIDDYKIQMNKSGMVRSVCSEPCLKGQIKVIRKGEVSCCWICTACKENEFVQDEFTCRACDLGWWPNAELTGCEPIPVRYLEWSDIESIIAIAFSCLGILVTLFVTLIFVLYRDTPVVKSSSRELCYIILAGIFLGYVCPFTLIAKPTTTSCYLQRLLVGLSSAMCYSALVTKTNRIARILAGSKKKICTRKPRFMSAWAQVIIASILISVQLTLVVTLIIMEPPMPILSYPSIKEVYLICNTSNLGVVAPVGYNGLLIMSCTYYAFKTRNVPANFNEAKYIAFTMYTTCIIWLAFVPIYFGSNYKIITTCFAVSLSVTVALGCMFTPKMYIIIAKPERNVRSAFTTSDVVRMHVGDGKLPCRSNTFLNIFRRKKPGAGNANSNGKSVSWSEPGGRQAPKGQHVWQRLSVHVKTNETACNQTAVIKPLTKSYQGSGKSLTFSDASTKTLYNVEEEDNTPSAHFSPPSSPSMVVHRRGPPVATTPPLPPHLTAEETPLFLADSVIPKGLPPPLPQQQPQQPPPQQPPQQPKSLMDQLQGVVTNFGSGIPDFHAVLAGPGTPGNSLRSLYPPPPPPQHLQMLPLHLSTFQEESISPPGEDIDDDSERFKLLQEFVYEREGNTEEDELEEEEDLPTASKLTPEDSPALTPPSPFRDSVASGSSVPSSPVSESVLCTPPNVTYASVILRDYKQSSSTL
Method: Pharmacological Example Signal Transduction at the Cloned Rat mGluR1 Receptor in CHO Cells
CHO cells expressing the mGluR1 receptor were plated in precoated black 96-well plates. […] The cells were loaded with Fluo-3 AM, plates were incubated for 1 hour at room temperature in the dark, cells were washed and the present compounds were added onto the cells for 20 minutes. […] Relative fluorescence units were recorded and average data graphs of quadruple wells were obtained.

Row | melting point | pIC50 [2] | Structure (SMILES) | other results
1 |  | 7.63 | CCc1cc2cc(C(=O)Cc3ccsc3)ccc2nc1C [Compound 299] | 
2 |  | 7.05 | CCc1cc2cc(C(=O)[C@H]3CC[C@@H](OC)CC3)ccc2nc1COC(C)=O [Compound 348] | 
3 |  | 7.11 | CO[C@H]1CC[C@@H](C(=O)c2ccc3nc4c(cc3c2)CCCCC4)CC1 [Compound 426] | 
4 |  | 7.57 | O=C(Cc1ccsc1)c1ccc2nc3c(cc2c1)CCCS3 [Compound 464] | 

More lines, now with the values behind:

Row | Structure (SMILES) | melting point | pIC50 [2] | other results
5 | CCc1cc2cc(C(=O)C3CCC(OC)CC3)ccc2nc1C#CCO (centres unmarked) [Compound 18] | 113 °C |  | 
6 | CCc1cc2cc(C(=O)C3CCC(OC)CC3)ccc2nc1I (centres unmarked) [Compound 21] | 110 °C |  | 
7 | CCc1cc2cc(C(=O)C3CCC(OC)CC3)ccc2nc1C#N (centres unmarked) [Compound 22] | 138 °C |  | 
8 | CCc1cc2cc(C(=O)C3CCC(OC)CC3)ccc2nc1C (centres unmarked) [Compound 27] |  |  | all or none criterion on difference in lifting time between ligated and non-ligated paw, post-drug as percentage of pre-drug [1]: antagonism
